Measured values from PubChem BioAssay (NCI).
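Tested at 5 concentrations; 48 h exposure; 96-well plates; endpoints linearly interpolated, else capped at highest concentration. Abbreviation: GI50, concentration required for 50% inhibition of growth. Definition used: TGI = concentration required for complete inhibition of growth.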

Assays:
Experiment in all cases: DTP human tumour cell line panel, 48 h
[1] = test system: M14 melanoma
[2] = test system: OVCAR-4 ovarian
[3] = test system: K-562 leukemia
[4] = test system: COLO 205 colon
[5] = test system: UO-31 renal
[6] = test system: HOP-62 NSCLC
[7] = test system: OVCAR-5 ovarian
[8] = test system: HS 578T breast
[9] = test system: SK-MEL-5 melanoma
[10] = test system: OVCAR-8 ovarian
[11] = test system: SK-MEL-28 melanoma
[12] = test system: IGROV1 ovarian
[13] = test system: SF-539 CNS
[14] = test system: PC-3 prostate
[15] = test system: SK-MEL-2 melanoma
[16] = test system: UACC-257 melanoma
[17] = test system: MALME-3M melanoma
[18] = test system: HCC-2998 colon
[19] = test system: SF-295 CNS
[20] = test system: RXF 393 renal
[21] = test system: OVCAR-3 ovarian
[22] = test system: MOLT-4 leukemia
[23] = test system: HT29 colon
[24] = test system: U251 CNS
[25] = test system: MDA-MB-435
[26] = test system: NCI-H23 lung
[27] = test system: SF-268 CNS
[28] = test system: A549 NSCLC
[29] = test system: SNB-75 CNS
[30] = test system: NCI-H460 lung
[31] = test system: RPMI-8226 leukemia
[32] = test system: HCT-116 colon
[33] = test system: NCI/ADR-RES ovarian
[34] = test system: 786-0 renal
[35] = test system: HL-60(TB) leukemia
[36] = test system: HOP-92 NSCLC
[37] = test system: A498 renal
[38] = test system: DU-145 prostate
[39] = test system: MCF7 breast
[40] = test system: SR leukemia
[41] = test system: HCT-15 colon
[42] = test system: NCI-H226 lung
[43] = test system: CAKI-1 renal
[44] = test system: EKVX NSCLC
[45] = test system: KM12 colon
[46] = test system: CCRF-CEM leukemia
[47] = test system: UACC-62 melanoma
[48] = test system: LOX IMVI melanoma
[49] = test system: BT-549 breast
[50] = test system: TK-10 renal
[51] = test system: ACHN renal
[52] = test system: SN12C renal
[53] = test system: SNB-19 CNS
[54] = test system: NCI-H522 lung
[55] = test system: MDA-MB-231 breast
[56] = test system: SK-OV-3 ovarian
[57] = test system: SW-620 colon
[58] = test system: T-47D breast

CNCCC/C=C1\c2cc3c(cc2-c2c1c1cc(OC)c(OC)cc1c(=O)n2C)OCO3
GI50 [1]: 1.14 µM | TGI [1]: 9.4 µM | GI50 [2]: 7.99 µM | TGI [2]: 44.3 µM | GI50 [3]: 0.493 µM | TGI [3]: 5.87 µM | GI50 [4]: 1.13 µM | GI50 [5]: 0.75 µM | GI50 [6]: 0.59 µM | TGI [6]: 3.97 µM | GI50 [7]: 1.38 µM | TGI [7]: 8.89 µM | GI50 [8]: 3.17 µM | TGI [8]: 30.3 µM | GI50 [9]: 0.435 µM | TGI [9]: 1.69 µM | GI50 [10]: 2.46 µM | TGI [10]: 19.8 µM | GI50 [11]: 1.4 µM | TGI [11]: 7.99 µM | GI50 [12]: 0.487 µM | GI50 [13]: 0.144 µM | TGI [13]: 0.558 µM | GI50 [14]: 1.12 µM | TGI [14]: 10.6 µM | GI50 [15]: 6.92 µM | TGI [15]: > 42.4 µM | GI50 [16]: 3.09 µM | TGI [16]: > 100 µM | GI50 [17]: 0.807 µM | TGI [17]: 5.98 µM | GI50 [18]: 0.226 µM | TGI [18]: 2.47 µM | GI50 [19]: 0.322 µM | TGI [19]: 2.27 µM | GI50 [20]: 0.105 µM | TGI [20]: 0.958 µM | GI50 [21]: 0.985 µM | TGI [21]: 4.12 µM | GI50 [22]: 0.137 µM | TGI [22]: 0.405 µM | GI50 [23]: 0.658 µM | TGI [23]: 12 µM | GI50 [24]: 0.305 µM | TGI [24]: 4.03 µM | GI50 [25]: 1.96 µM | TGI [25]: 13.4 µM | GI50 [26]: 1.07 µM | TGI [26]: 5.31 µM | GI50 [27]: 0.521 µM | TGI [27]: 10 µM | GI50 [28]: 1.31 µM | TGI [28]: > 24.5 µM | GI50 [29]: 1.26 µM | TGI [29]: 11.9 µM | GI50 [30]: 0.331 µM | GI50 [31]: 1.24 µM | TGI [31]: 7.94 µM | GI50 [32]: 0.399 µM | TGI [32]: 1.9 µM | GI50 [33]: 1.53 µM | TGI [33]: 10.3 µM | GI50 [34]: 0.259 µM | TGI [34]: 2.31 µM | GI50 [35]: 2.22 µM | TGI [35]: 12 µM | GI50 [36]: 0.347 µM | TGI [36]: 5.43 µM | GI50 [37]: < 0.0327 µM | TGI [37]: 0.341 µM | GI50 [38]: 1.07 µM | TGI [38]: 5.5 µM | GI50 [39]: 0.244 µM | TGI [39]: 0.813 µM | GI50 [40]: 0.211 µM | TGI [40]: 0.581 µM | GI50 [41]: 1.15 µM | TGI [41]: 6.77 µM | GI50 [42]: 0.509 µM | TGI [42]: 2.09 µM | GI50 [43]: 0.269 µM | TGI [43]: 1.48 µM | GI50 [44]: 1.31 µM | TGI [44]: 5.7 µM | GI50 [45]: 1.92 µM | TGI [45]: 18.1 µM | GI50 [46]: 0.843 µM | TGI [46]: 10.9 µM | GI50 [47]: 0.248 µM | TGI [47]: 1.38 µM | GI50 [48]: 0.322 µM | TGI [48]: 1.74 µM | GI50 [49]: 0.455 µM | TGI [49]: 4.33 µM | GI50 [50]: 1.83 µM | TGI [50]: 9.83 µM | GI50 [51]: 0.245 µM | TGI [51]: 1.04 µM | GI50 [52]: 0.858 µM | TGI [52]: 5.31 µM | GI50 [53]: 0.883 µM | TGI [53]: 24.7 µM | GI50 [54]: 0.611 µM | GI50 [55]: 1.03 µM | TGI [55]: 5.31 µM | GI50 [56]: 1.87 µM | GI50 [57]: 0.793 µM | TGI [57]: 19.5 µM

COC(=O)[C@]12CC[C@@H](C(=O)/C=C/c3cccnc3)[C@@H]1[C@H]1CC[C@@H]3[C@@]4(C)C/C(=C/c5cccnc5)C(=O)C(C)(C)[C@@H]4CC[C@@]3(C)[C@]1(C)CC2
GI50 [1]: 0.31 µM | TGI [1]: 1.01 µM | GI50 [3]: 0.309 µM | TGI [3]: > 100 µM | GI50 [4]: 0.357 µM | TGI [4]: 1.35 µM | GI50 [5]: 0.167 µM | TGI [5]: 0.331 µM | GI50 [6]: 0.789 µM | TGI [6]: 2.34 µM | GI50 [7]: 0.369 µM | TGI [7]: 1.34 µM | GI50 [8]: 0.395 µM | TGI [8]: 1.93 µM | GI50 [9]: 0.335 µM | TGI [9]: 0.983 µM | GI50 [10]: 0.388 µM | TGI [10]: 1.87 µM | GI50 [11]: 0.245 µM | TGI [11]: 0.565 µM | GI50 [12]: 0.241 µM | TGI [12]: 0.57 µM | GI50 [13]: 0.207 µM | TGI [13]: 0.473 µM | GI50 [14]: 0.412 µM | TGI [14]: 2.09 µM | GI50 [15]: 0.296 µM | TGI [15]: 1.02 µM | GI50 [17]: 0.201 µM | TGI [17]: 0.416 µM | GI50 [19]: 0.382 µM | TGI [19]: 1.44 µM | GI50 [20]: 0.219 µM | TGI [20]: 0.509 µM | GI50 [21]: 0.231 µM | TGI [21]: 0.514 µM | GI50 [22]: 0.359 µM | TGI [22]: 1.77 µM | GI50 [23]: 0.319 µM | TGI [23]: 1.02 µM | GI50 [24]: 0.36 µM | TGI [24]: 1.34 µM | GI50 [25]: 0.204 µM | TGI [25]: 0.42 µM | GI50 [28]: 0.401 µM | TGI [28]: 2.31 µM | GI50 [29]: 1.35 µM | TGI [29]: 2.63 µM | GI50 [30]: 0.51 µM | TGI [30]: 1.57 µM | GI50 [31]: 0.258 µM | TGI [31]: 0.838 µM | GI50 [34]: 0.374 µM | TGI [34]: 1.33 µM | GI50 [35]: 0.292 µM | TGI [35]: 1.51 µM | GI50 [36]: 0.434 µM | TGI [36]: 1.73 µM | GI50 [37]: 0.224 µM | TGI [37]: 0.947 µM | GI50 [38]: 0.773 µM | TGI [38]: 2.03 µM | GI50 [39]: 0.387 µM | TGI [39]: 1.83 µM | GI50 [40]: 0.281 µM | TGI [40]: 1.27 µM | GI50 [41]: 0.247 µM | TGI [41]: 0.666 µM | GI50 [42]: 0.26 µM | TGI [42]: 0.597 µM | GI50 [43]: 0.716 µM | TGI [43]: 2 µM | GI50 [58]: 0.405 µM | TGI [58]: 2.42 µM | GI50 [45]: 0.317 µM | TGI [45]: 1.05 µM | GI50 [46]: 0.334 µM | TGI [46]: 1.65 µM | GI50 [47]: 0.327 µM | TGI [47]: 1.05 µM | GI50 [48]: 0.21 µM | TGI [48]: 0.442 µM | GI50 [50]: 0.701 µM | TGI [50]: 2.07 µM | GI50 [51]: 0.191 µM | TGI [51]: 0.348 µM | GI50 [52]: 0.429 µM | TGI [52]: 1.67 µM | GI50 [53]: 0.665 µM | TGI [53]: 1.97 µM | GI50 [55]: 0.223 µM | TGI [55]: 0.508 µM | GI50 [56]: 2.73 µM | TGI [56]: 6.89 µM

NC(N)=N/N=C\c1c(-c2cccc([N+](=O)[O-])c2)nc2sc(Cl)cn12
TGI [3]: > 100 µM | TGI [5]: 3.32 µM | TGI [7]: > 100 µM | TGI [8]: > 100 µM | TGI [9]: 78.2 µM | TGI [12]: 4.05 µM | TGI [17]: 5.04 µM | TGI [18]: 4.92 µM | TGI [22]: 4.53 µM | TGI [26]: 5.69 µM | TGI [33]: > 100 µM | TGI [34]: > 100 µM | TGI [37]: 62.7 µM | TGI [40]: 3.07 µM | TGI [41]: > 100 µM | TGI [42]: > 100 µM | TGI [58]: 4.4 µM | TGI [47]: > 100 µM | TGI [48]: > 100 µM | TGI [51]: > 100 µM
